Data published in US4820834A, “Benzodiazepine analogs” (priority 1987, dated 1989).
Where two headings read alike, the source gives them in different places.

Assays:
CCK receptor (pancreas) = target: T1, CCK receptor (pancreas) (Rattus norvegicus, UniProt P30551); assay: CCK Receptor Binding (Pancreas): inhibition of ^125 I-CCK-33 binding; set-up: species or system Male Sprague-Dawley rats
T1 construct: The whole pancreas was dissected free of fat tissue and was homogenized; from tissue; host or cells: rat pancreas membranes (Sprague-Dawley)
T1 sequence (P30551 1-444): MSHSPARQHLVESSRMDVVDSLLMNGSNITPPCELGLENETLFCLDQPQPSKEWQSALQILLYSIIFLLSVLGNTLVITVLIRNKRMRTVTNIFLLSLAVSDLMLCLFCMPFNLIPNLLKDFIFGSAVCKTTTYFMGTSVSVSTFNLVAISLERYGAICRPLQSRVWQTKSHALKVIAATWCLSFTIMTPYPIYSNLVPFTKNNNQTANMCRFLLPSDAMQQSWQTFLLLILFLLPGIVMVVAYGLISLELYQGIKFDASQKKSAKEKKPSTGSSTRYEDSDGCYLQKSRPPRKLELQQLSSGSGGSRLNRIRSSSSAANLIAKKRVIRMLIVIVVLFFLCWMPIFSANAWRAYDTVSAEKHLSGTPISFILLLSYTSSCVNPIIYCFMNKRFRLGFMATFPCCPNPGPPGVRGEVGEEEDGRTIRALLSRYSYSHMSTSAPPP
In short: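 Bound ^125I-CCK-33 was counted in pellets after a 30 min, 37° C incubation followed by centrifugation. Membranes came from male Sprague-Dawley rat pancreas, assayed in Tris HCl pH 7.7 containing DTT, bacitracin, PMSF and o-phenanthroline. For Scatchard analysis, tracer was diluted with rising unlabelled CCK-33.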

[1] = target: T2, Gastrin receptor (gastric glands) (Cavia porcellus, UniProt H0VZC5); assay: Gastrin Receptor Binding in Guinea Pig Gastric Glands; set-up: species or system guinea pig (male Hartley)
T2 construct: The washed guinea pig gastric glands prepared as above were resuspended; from tissue; host or cells: guinea pig gastric mucosal glands (male Hartley)
T2 sequence (H0VZC5 1-426): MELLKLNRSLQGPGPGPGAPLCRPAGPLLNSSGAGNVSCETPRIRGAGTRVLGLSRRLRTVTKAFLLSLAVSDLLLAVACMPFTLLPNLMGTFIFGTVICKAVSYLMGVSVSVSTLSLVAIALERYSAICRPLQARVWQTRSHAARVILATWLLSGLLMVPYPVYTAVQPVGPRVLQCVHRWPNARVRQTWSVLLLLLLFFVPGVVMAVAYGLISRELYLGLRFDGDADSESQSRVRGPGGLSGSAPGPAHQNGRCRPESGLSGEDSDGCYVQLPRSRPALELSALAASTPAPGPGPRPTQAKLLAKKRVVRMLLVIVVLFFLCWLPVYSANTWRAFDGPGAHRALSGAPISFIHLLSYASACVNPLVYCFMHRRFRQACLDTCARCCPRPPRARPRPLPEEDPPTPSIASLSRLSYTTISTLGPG

[2] = target: T3, CCK receptor (brain, cerebral cortex) (Cavia porcellus, UniProt H0VZC5); assay: biochemical; type: binding, Male Hartley guinea pigs
T3 construct: Cerebral cortex was dissected and used as a receptor source; from tissue; host or cells: guinea pig cerebral cortex membranes (male Hartley)
T3 sequence (H0VZC5 1-426): T2 sequence (H0VZC5 1-426)
In short: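 Binding of [radiolabeled] CCK-33 measured by gamma counting of centrifuged pellets after 2 h at 25°C. Membranes came from guinea pig brain cortex, suspended in 10 mM HEPES, 5 mM MgCl2, 1 mM EGTA, 0.25 mg/ml bacitracin, 0.4% BSA.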

[3] = read-out: IC50 ^125 I-CCK Brain; guinea pig cerebral cortex, ^125 I-CCK-33, 25° C., 2 hours
[4] = IC50 ^125 I-CCK Pancreas, rat pancreas membranes, ^125 I-CCK-33, 37° C., 30 minutes
[5] = ^125 I-gastrin, 25° C., 30 minutes, read-out: IC50 ^125 I-Gastrin Gastric Glands
[6] = guinea pig cerebral cortex, ^125 I-CCK-33, 25° C., 2 hours; read-out: IC50 ^125 I-CCK Brain
[7] = rat pancreas membranes, ^125 I-CCK-33, 37° C., 30 minutes; read-out: IC50 ^125 I-CCK Pancreas
[8] = IC50 ^125 I-Gastrin Gastric Glands, 25° C., 30 minutes
[9] = IC50 ^125 I-CCK Brain, guinea pig cerebral cortex, ^125 I-CCK-33, 25° C., 2 hours

Compound | IC50 [1, 5] [µM] | IC50 [2, 6] [µM] | IC50 (CCK receptor (pancreas); [7]) [µM] | IC50 [2, 9] [µM] | other results
O=C(O)CCN1C(=O)[C@@H](Cc2c[nH]c3ccccc23)N=C(c2ccccc2F)c2ccccc21 [Example 103, (2-Carboxyethyl)-1,3-dihydro-5-(2-fluorophenyl)-3(R)-(3'-indolyl)methyl-2H-1,4-benzodiazepin-2-one] | – | – | – | – | IC50 (CCK receptor (pancreas); read-out: IC50 ^125 I-CCK Pancreas; rat pancreas membranes, ^125 I-CCK-33, 37° C., 30 minutes): 1.4 µM; IC50 ([1]; read-out: IC50 ^125 I-Gastrin Gastric Glands, 25° C., 30 minutes): 5.8 µM; IC50 [2, 3]: 11 µM
O=CNc1ccccc1C(=O)CC1N=C(c2ccccc2F)c2ccccc2NC1=O (stereo not drawn) [Example 104, 1,3-Dihydro-5-(2-fluorophenyl)-3-(2-formylaminobenzoylmethyl)-2H-1,4-benzodiazepin-2-one] | > 100 | > 100 | – | – | IC50 (CCK receptor (pancreas); [4]): 0.3 µM
O=C(NC1N=C(c2ccccc2)c2ccccc2NC1=O)C1Cc2ccccc2N1 (stereo not drawn) [Example 133, 1,3-Dihydro-3-(RS)-(2-indolinecarbonylamino)-5-phenyl-2-H-1,4-benzodiazepin-2-one] | – | – | 0.9 | > 40 | IC50 [1, 8]: 110 µM
CN1C(=O)[C@@H](NC(=O)c2ccccc2Cl)N=C(c2ccccc2)c2ccccc21 [Example 150, 3(S)-(-)-3-(2-Chlorobenzoylamino)-1,3-dihydro-1-methyl-5-phenyl-2H-1,4-benzodiazepin-2-one] | 130 | – | 1.7 | – | IC50 [2, 3]: 83 µM
CN1C(=O)[C@H](NC(=O)c2ccccc2Cl)N=C(c2ccccc2)c2ccccc21 [Example 151, 3(R)-(+)-3-(2-Chlorobenzoylamino)-1,3-dihydro-1-methyl-5-phenyl-2H-1,4-benzodiazepin-2-one] | 7.5 | – | 11 | – | IC50 [2, 3]: 22 µM
CN1C(=O)[C@@H](NC(=O)c2cccc(Br)c2)N=C(c2ccccc2F)c2ccccc21 [Example 154, 3(S)-(+)-3-(3-Bromobenzoylamino)-1,3-dihydro-5-(2-fluorophenyl)-1-methyl-2H-1,4-benzodiazepin-2-one] | 0.5 | – | 0.0035 | 3.5 | –
CN1C(=O)[C@@H](NC(=O)c2ccc(Br)cc2)N=C(c2ccccc2F)c2ccccc21 [Example 156, 3(S)-(+)-3-(4-Bromobenzoylamino)-1,3-dihydro-5-(2-fluorophenyl)-1-methyl-2H-1,4-benzodiazepin-2-one] | 0.68 | – | – | 4 | IC50 (CCK receptor (pancreas); [4]): 0.0035 µM
CN1C(=O)[C@@H](NC(=O)c2ccc(C(C)(C)C)cc2)N=C(c2ccccc2F)c2ccccc21 [Example 157, 3(S)-(+)-3-(4-t-Butylbenzoylamino)-1,3-dihydro-5-(2-fluorophenyl)-1-methyl-2H-1,4-benzodiazepin-2-one] | 2.4 | 8 | 0.019 | – | –
CN1C(=O)[C@@H](NC(=O)c2ccc(I)cc2)N=C(c2ccccc2F)c2ccccc21 [Example 159, 3(S)-(+)-1,3-Dihydro-5-(2-fluorophenyl)-3-(4-iodobenzoylamino)-1-methyl-2H-1,4-benzodiazepin-2-one] | 0.53 | – | – | 3 | IC50 (CCK receptor (pancreas); [4]): 0.0034 µM
CN1C(=O)[C@@H](NC(=O)c2ccc(C#N)cc2)N=C(c2ccccc2F)c2ccccc21 [Example 162, 3(S)-(+)-3-(4-Cyanobenzoylamino)-1,3-dihydro-5-(2-fluorophenyl)-1-methyl-2H-1,4-benzodiazeoin-2-one] | 9 | – | 0.043 | 31 | –
CN1C(=O)[C@H](NC(=O)c2cccc(I)c2)N=C(c2ccccc2F)c2ccccc21 [Example 168, 3(R)-(-)-1,3-Dihydro-5-(2-fluorophenyl)-3-(3-iodobenzoylamino)-1-methyl-2H-1,4-benzodiazepin-2-one] | 2 | 2.4 | 0.015 | – | –
CN1C(=O)[C@H](NC(=O)c2ccccc2I)N=C(c2ccccc2F)c2ccccc21 [Example 169, 3(R)-(+)-1,3-Dihydro-5-(2-fluorophenyl)-3-(2-iodobenzoylamino)-1-methyl-2H-1,4-benzodiazepin-2-one] | 4.4 | – | 58 | 3.8 | –
CN1C(=O)[C@@H](NC(=O)c2ccccc2I)N=C(c2ccccc2F)c2ccccc21 [Example 170, 3(S)-(-)-1,3-Dihydro-5-(2-fluorophenyl)-3-(2-iodobenzoylamino)-1-methyl-2H-1,4-benzodiazepin-2-one] | 11 | – | 0.8 | 45 | –
CN1C(=O)[C@H](NC(=O)c2ccccc2Cl)N=C(c2ccccc2F)c2ccccc21 [Example 172, 3(R)-(+)-3-(2-Chlorobenzoylamino)-1,3-dihydro-5-(2-fluorophenyl)-1-methyl-2H-1,4-benzodiazepin-2-one] | – | – | 3.4 | 16 | IC50 [1, 8]: 3.7 µM
O=C(N[C@H]1N=C(c2ccccc2)c2ccccc2NC1=O)c1cc2ccccc2[nH]1 [Example 187, 3(S)-(2-Indolecarbonyl)amino-1,3-dihydro-5-phenyl-2H-1,4,-benzodiazepin-2-one] | – | – | – | 1.3 | IC50 (CCK receptor (pancreas); [4]): 0.003 µM; IC50 [1, 8]: 5.3 µM
CC(C)C(=O)N[C@H]1N=C(c2ccccc2)c2ccccc2N(C)C1=O [Example 189, (S)-N-(2,3-Dihydro-1-methyl-2-oxo-5-phenyl-1H-1,4-benzodiazepin-3-yl)-2-methylpropanamide] | – | – | 1.1 | > 100 | IC50 [1, 8]: 73 µM
CC(C)CC(=O)N[C@H]1N=C(c2ccccc2)c2ccccc2N(C)C1=O [Example 190, (S)-N-(2,3-Dihydro-1-methyl-2-oxo-5-phenyl-1H-1,4-benzodiazepin-3-yl)-3-methylbutanamide] | 130 | > 100 | – | – | IC50 (CCK receptor (pancreas); [4]): 0.78 µM
CN1C(=O)[C@@H](NC(=O)C2CCCCC2)N=C(c2ccccc2)c2ccccc21 [Example 191, (S)-N-(2,3-Dihydro-1-methyl-2-oxo-5-phenyl-1H-1,4-benzodiazepin-3-yl)-cyclohexanecarboxamide] | > 100 | > 100 | 0.8 | – | –
CN1C(=O)[C@@H](NC(=O)C(C)(C)C)N=C(c2ccccc2)c2ccccc21 [Example 193, (S)-N-(2,3-Dihydro-1-methyl-2-oxo-5-phenyl-1H-1,4-benzodiazepin-3-yl]-2,2-dimethylpropanamide] | – | – | 1.6 | > 100 | IC50 [1, 8]: 13 µM
CCOC(=O)CN1C(=O)C(NC(=O)Nc2ccc(Cl)cc2)N=C(c2ccccc2F)c2ccccc21 (stereo not drawn) [Example 194, 3-((((4-Chlorophenyl)amino)carbonyl)amino)-5-(2-fluorophenyl)-2,3-dihydro-2-oxo-1H-1,4-benzodiazepin-1-acetic acid ethyl ester] | 0.004 | 0.0012 | 0.22 | – | –
CCOC(=O)CN1C(=O)C(NC(=O)NC(C)c2ccccc2)N=C(c2ccccc2F)c2ccccc21 (stereo not drawn) [Example 195, 5-(2-Fluorophenyl)-2,3-dihydro-2-oxo-((((1-phenylethyl)amino)carbonyl)amino)-1H-1,4-benzodiazepine-1-acetic acid ethyl ester] | 0.4 | > 0.1 | – | – | IC50 (CCK receptor (pancreas); [4]): 4.8 µM
CN1C(=O)C(NC(=O)c2ccc(Cl)cc2N)N=C(c2ccccc2)c2ccccc21 (stereo not drawn) [Example 196, 3-N-(2,3-Dihydro-1-methyl-2-oxo-5-phenyl-1H-1,4-benzodiazepine-3-yl)-2-amino-4-chlorobenzamide] | – | – | 0.0009 | 2.4 | IC50 [1, 8]: 1.9 µM
